Broadly, the IC50 is the concentration at which inhibition is half-maximal.

Type in all cases: binding
One assay deals with B-Raf (Homo sapiens, UniProt P15056). Briefly: Elution of B-Raf from ATP-Sepharose column by compound (Proteome Mining), IC50 estimate. The conditions noted are these: estimated from percent of protein eluted from ATP-Sepharose column, gel densitometry; read-out: Approximate IC50 for B-Raf. How it is done: (§1) A proteome containing a known quantity of Her2, EGFR, and B-Raf was run over an ATP-Sepharose™ column in order to bind all purine-binding proteins. See, WO 00/63694 and U.S. Provisional Application No. 60/453,697 filed Jan. 22, 2003, each of which is incorporated by reference in its entirety. The ATP-Sepharose™ was washed several times, and then eluted with the compound of Formula III. The experiment was run in duplicate at concentrations of 20 μM, 100 μM, and 500 μM of the compound of Formula III. The eluted fractions were run on a 1-dimensional SDS polyacrylamide gel. Gels were stained with a fluorescent stain such as sypro ruby (a highly sensitive fluorescent protein stain that can readily detect less than 1 fmol of total protein, i.e., less than 0.04 ng for a 40 kDa protein). The gels were imaged using a standard flat bed gel imager and the amount of protein estimated by densiometry. The percent of protein eluted from the column at each concentration was determined and IC50 values were calculated from these estimates. Where necessary, the eluted proteins were cut out of the gel, and identified using mass spectral techniques.
Sequence of B-Raf (P15056 whole entry, species assumed): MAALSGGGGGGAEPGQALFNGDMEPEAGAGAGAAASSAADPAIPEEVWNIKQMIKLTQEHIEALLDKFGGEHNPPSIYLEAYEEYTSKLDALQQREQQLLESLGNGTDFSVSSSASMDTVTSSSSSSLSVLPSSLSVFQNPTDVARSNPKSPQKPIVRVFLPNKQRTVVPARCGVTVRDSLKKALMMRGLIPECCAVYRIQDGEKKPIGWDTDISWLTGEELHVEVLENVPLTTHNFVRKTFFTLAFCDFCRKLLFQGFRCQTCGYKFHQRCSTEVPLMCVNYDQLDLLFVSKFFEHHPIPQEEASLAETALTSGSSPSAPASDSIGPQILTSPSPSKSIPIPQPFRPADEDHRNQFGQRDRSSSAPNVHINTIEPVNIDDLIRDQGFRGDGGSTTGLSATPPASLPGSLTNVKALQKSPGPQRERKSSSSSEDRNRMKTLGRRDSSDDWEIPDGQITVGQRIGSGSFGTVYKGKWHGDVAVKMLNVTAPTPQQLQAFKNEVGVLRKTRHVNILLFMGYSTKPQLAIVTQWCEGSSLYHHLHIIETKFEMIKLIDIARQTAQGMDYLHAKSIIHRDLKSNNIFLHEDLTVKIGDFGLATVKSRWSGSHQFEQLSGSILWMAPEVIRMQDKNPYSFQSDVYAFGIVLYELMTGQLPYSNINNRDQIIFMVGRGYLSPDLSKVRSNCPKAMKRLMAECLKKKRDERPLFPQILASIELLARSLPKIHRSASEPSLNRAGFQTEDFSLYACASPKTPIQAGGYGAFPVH
These steps were repeated with each of the compounds of Formulas IV-X, MTX, and the c series derivative.

In another assay the target is Her2 (Homo sapiens, UniProt P04626). Briefly: Elution of Her2 from ATP-Sepharose column by compound (Proteome Mining), IC50 estimate. The conditions noted are these: estimated from percent of protein eluted from ATP-Sepharose column, gel densitometry; read-out: Approximate IC50 for Her2. The method, then:
as §1, with “See, WO 00/63694 and U.S. Provisional Application No. 60/453,697 filed Jan. 22, 2003, each of which is incorporated by reference in its entirety.” left out

Assay [1] deals with T1, propionyl-CoA carboxylase subunit alpha (PCCA) (Sus scrofa, UniProt P0DTA4).
T1 construct: a porcine liver proteome was run over an ATP-Sepharose™ column; from tissue; host or cells: porcine liver
T1 sequence (P0DTA4 53-730): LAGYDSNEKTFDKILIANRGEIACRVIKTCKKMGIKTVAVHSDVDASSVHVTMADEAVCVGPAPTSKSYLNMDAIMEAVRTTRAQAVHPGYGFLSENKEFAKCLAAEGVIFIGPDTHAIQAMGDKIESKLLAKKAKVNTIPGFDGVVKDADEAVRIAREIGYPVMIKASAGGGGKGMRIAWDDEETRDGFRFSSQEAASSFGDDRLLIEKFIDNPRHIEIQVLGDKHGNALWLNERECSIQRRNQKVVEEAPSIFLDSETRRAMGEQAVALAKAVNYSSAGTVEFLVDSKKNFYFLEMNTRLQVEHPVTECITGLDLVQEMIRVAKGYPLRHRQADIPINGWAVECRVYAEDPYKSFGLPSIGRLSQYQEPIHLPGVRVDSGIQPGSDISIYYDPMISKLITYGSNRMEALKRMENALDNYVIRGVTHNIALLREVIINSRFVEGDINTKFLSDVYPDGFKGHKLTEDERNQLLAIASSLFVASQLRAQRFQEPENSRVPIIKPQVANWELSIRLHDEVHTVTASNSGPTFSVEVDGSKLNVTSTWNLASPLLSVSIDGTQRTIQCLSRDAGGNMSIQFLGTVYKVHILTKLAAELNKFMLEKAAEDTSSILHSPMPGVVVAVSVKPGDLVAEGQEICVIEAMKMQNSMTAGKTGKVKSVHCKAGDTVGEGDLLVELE
T1 sequence (P79384 29-539 partner): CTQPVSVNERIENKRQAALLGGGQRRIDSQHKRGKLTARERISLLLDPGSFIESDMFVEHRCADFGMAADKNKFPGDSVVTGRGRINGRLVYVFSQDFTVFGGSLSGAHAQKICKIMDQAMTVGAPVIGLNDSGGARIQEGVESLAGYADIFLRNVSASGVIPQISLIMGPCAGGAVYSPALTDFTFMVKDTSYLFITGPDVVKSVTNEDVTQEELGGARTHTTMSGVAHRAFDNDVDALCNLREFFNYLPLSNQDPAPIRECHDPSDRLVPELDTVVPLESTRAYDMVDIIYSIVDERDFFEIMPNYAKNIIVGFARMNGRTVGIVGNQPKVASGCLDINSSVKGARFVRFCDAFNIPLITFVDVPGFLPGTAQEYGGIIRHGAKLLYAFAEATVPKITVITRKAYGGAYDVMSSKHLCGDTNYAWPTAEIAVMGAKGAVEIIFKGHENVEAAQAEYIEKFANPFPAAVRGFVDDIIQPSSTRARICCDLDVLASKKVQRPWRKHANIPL
Briefly: Elution of PCCA from ATP-Sepharose column loaded with porcine liver proteome, IC50 estimate. The conditions noted are these: estimated from percent of protein eluted from ATP-Sepharose column, read-out: Approximate IC50 for PCCA. How it is done:
Similar experiments were carried out to compare the IC50 values for PYC, PCCA, and PCCB. In these trials, a porcine liver proteome was run over an ATP-Sepharose™ column to bind all purine-binding proteins. The ATP-Sepharose™ column was washed several times, and then eluted with the compound of Formula III at concentrations of 1 μM, 5 μM, 10 μM, 50 μM, 100 μM, and 500 μM to identify proteins that bound to this compound.
Gels were stained with a fluorescent stain such as sypro ruby (a highly sensitive fluorescent protein stain that can readily detect less than 1 fmol of total protein, i.e., less than 0.04 ng for a 40 kDa protein). The gels were imaged using a standard flat bed gel imager and the amount of protein estimated by densiometry. The percent of protein eluted from the column at each concentration was determined and IC50 values were calculated from these estimates. Where necessary, the eluted proteins were cut out of the gel, and identified using mass spectral techniques.
The values obtained were then compared to those for DHFR.

Sequence of Her2 (P04626 23-1255, species assumed): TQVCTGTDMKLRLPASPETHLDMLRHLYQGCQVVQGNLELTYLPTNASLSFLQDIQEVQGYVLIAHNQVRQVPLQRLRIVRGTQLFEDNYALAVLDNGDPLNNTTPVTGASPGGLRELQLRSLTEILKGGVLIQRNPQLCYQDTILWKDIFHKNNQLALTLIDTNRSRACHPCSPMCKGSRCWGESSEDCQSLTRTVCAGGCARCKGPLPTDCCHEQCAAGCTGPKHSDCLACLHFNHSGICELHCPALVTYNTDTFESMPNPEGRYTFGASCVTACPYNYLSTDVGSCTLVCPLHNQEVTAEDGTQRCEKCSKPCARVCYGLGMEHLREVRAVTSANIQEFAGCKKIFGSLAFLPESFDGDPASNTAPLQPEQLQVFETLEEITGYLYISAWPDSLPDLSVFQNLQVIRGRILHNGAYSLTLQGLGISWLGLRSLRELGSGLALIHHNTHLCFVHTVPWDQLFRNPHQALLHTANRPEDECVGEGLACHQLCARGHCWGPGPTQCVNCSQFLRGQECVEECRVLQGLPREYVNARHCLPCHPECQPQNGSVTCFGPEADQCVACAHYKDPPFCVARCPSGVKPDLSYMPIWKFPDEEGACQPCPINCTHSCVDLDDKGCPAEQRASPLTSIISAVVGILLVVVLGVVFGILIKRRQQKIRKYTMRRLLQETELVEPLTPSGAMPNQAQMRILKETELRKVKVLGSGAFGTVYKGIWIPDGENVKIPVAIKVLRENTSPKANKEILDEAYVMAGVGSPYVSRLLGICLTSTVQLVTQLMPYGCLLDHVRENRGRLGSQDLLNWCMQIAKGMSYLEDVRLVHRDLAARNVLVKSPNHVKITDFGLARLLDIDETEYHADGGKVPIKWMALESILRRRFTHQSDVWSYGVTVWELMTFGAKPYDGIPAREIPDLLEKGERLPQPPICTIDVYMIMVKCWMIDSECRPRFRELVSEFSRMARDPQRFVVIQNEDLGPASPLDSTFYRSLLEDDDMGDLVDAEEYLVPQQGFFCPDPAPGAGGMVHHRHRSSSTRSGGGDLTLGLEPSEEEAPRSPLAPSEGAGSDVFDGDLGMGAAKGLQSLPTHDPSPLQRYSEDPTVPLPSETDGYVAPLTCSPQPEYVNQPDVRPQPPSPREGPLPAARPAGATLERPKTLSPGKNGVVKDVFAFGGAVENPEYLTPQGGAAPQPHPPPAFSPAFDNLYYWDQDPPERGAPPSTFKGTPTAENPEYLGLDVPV

For the compound `C#CCN(Cc1cnc2nc(N)nc(N)c2n1)c1ccc(C(=O)NC(CCC(=O)O)C(=O)O)cc1C` (stereo not shown) [Formula III, 2-{4-[(2,4-diamino-pteridin-6-ylmethyl)-prop-2-ynyl-amino]-3-methyl-benzoylamino}-pentanedioic acid], the values for the IC50 (on B-Raf; on Her2; in assay [1]) were 5 µM, 0.9 µM and 2 µM, respectively.

Turning to `C#CCN(Cc1cnc2nc(N)nc(N)c2n1)c1ccc(C(=O)NC(CCC(=O)O)C(=O)O)cc1OC(F)(F)F` (stereo not shown) [Formula IX], the results for the IC50 (on Her2; in assay [1]) were 7.5 µM and 10 µM, respectively.

For `C#CCN(Cc1cnc2nc(N)nc(N)c2n1)c1ccc(C(=O)NC(CCC(=O)O)C(=O)O)cc1OC` (stereo not shown) [Formula VIII], the values for the IC50 (at B-Raf; on Her2; in assay [1]) were 5 µM, 5 µM and 2 µM, respectively.

As for `Cc1cc(C(=O)NC(CCC(=O)O)C(=O)O)ccc1N(Cc1ccoc1)Cc1cnc2nc(N)nc(N)c2n1` (stereo not shown) [Formula VII], the IC50 at Her2 was 5 µM; in assay [1], 2 µM.

The values above are taken from US20060035901A1, “Methotrexate derivatives useful for treating cancer and arthritis” (Serenex, Inc., priority 2004, published 2006).
